The values that follow come from PMC9981206 (Cancer Research Communications, 2022).

The subject of series [1] is RKO colon carcinoma cells. The following applies: 5 days of cultivation; cited from earlier work.
The next series relates to WNT/β-catenin signaling. The following applies: HEK293 cells, mean ± SD; read-out: WNT reporter IC50; cited from earlier work.
A further series in a line: in vivo. In kind it is in vivo, CB17-SCID mice. The following applies: CB17-SCID, mouse, doses 0.33–10 mg/kg oral twice daily, 4 hours post last dosing, mass spectrometry. As for the experimental part: (§1) The experiment using COLO 320DM (CCL-220, RRID: CVCL_0219, ATCC) xenografts was carried out as previously described ([40]) at Reaction Biology. […] Next, the mice were sacrificed, approximately 4 hours after first dose of the day. Protein and RNA extracts were prepared from four moderately sized tumors within each treatment group.

Another series deals with COLO 320DM xenografts. In words: in vivo. In kind it is in vivo, CB17-SCID mice. As to conditions: for body weight changes: tumor-bearing CB17-SCID mice. As for the experimental part: as §1

pIC50: −log10 of the molar value.

The term GI50 denotes the concentration giving 50% growth inhibition. By pIC50 is commonly meant the negative decadic logarithm of the IC50, by convention in mol/L. With `CCOc1ccc(-c2nnc([C@H]3C[C@H](NC(=O)c4cccc5nccnc45)C3)n2-c2ccccc2F)nc1` [OM-153], the concentration for 50% growth inhibition (GI50) in series [1] was greater than 10000 nM. Also, the “RKO GI25” value in series [1] was > 10,000 nmol/L. Besides, the pIC50 in the series with WNT/β-catenin signaling is 9.20. The concentration at 4 h in the series “in vivo” (plasma) and in the series “in vivo” (tumor) was greater than 10 nM in each case. The body weight changes result in the series on COLO 320DM xenografts (10 mg/kg oral twice daily) was “no changes in body weights that would be suggestive for toxicity”; with COLO 320DM xenografts (3.3 and 1 mg/kg oral twice daily), “statistically significant body weight reductions”. Also, the “β-catenin protein and WNT/β-catenin signaling target genes DKK1, APCDD1, NKD1 in tumors” value with COLO 320DM xenografts (immunoblot and real-time qRT-PCR, oral twice daily) is given as “dose-dependently reduced”. For the same molecule, the “AXIN1 and AXIN2 proteins in the tumor specimen” value in the series with COLO 320DM xenografts (immunoblot, oral twice daily) is “stabilized”.
